In one test the test system is Phytophthora infestans. The format is in vivo, Phytophthora infestans on potted tomato plants. The conditions noted are these: 1 ppm; protective spray on tomato leaves, infested next day, rated after 6 days; efficiency by Abbot's formula vs untreated control (90% infestation).
Test [1] relates to Erysiphe [syn. Blumeria] graminis form a specialis. tritici. Put plainly: Efficacy against wheat mildew caused by Erysiphe [syn. Blumeria] graminis forma specialis tritici. The format is in vivo. The conditions noted are these: wheat seedlings sprayed, dusted with spores 24 hours later, rated after 7 days, untreated control 90% infestation.

With `COc1ccc(C(=CC(=O)N2CCOCC2)c2ccc(Cl)cc2)cc1OC` [dimethomorph (II), 3-(4-chlorophenyl)-3-(3,4-dimethoxyphenyl)-1-morpholin-4-ylpropenone], the “Observed action (%)” value in the test on Phytophthora infestans is reported as 22%; in test [1] (4 ppm), 0%.

On to `CO/C=C(/C(=O)OC)c1ccccc1CO/N=C(C)/C=C/c1ccc(Cl)cc1` [enestrobin (I), methyl 2-(2-[3-(4-chlorophenyl)-1-methyl-allylidenaminooxymethyl]phenyl)-3-methoxyacrylate], for which the “Observed action (%)” value in the test on Phytophthora infestans was determined as 0%; in test [1] (16 ppm) it was 33%. In the case of `COc1ccc(C(=CC(=O)N2CCOCC2)c2ccc(F)cc2)cc1OC` [flumorph (IIA), 4-[3-(3,4-dimethoxyphenyl)-3-(4-fluorophenyl)-1-oxo-2-propenyl]morpholine], in test [1] (4 ppm), the “Observed action (%)” value came to 0%.

For the origin of these results see patent US20080274883A1, “Fungicidal Mixtures” (BASF AKTIENGESELLSCHAFT, priority 2004, published 2008).
